Article PMC10217311 (Gels, 2023)
In brackets after ≈: the same amount, converted by molar mass.

Assays:
[1] = for T5%, decomposition temperature, 5% weight loss of the initial mass / T50%, decomposition temperature, 50% weight loss of the initial mass: TG, oxidative conditions
Description: The thermal stability of drugs is an essential property necessary to control the formulation method of the finished drug. […] Both the temperature at which decomposition begins (Tonset) and the temperature at which mass loss accelerates to its maximum (Tmax) were identified. […]
XRD, thermal stability (TG), phase transition temperatures (DSC), specific rotation, solubility in water, and lipophilicity were also determined. […]
Thermal stability was assessed using thermogravimetric analyses performed on a Netzsch thermomicrobalance TG 209 F1 Libra. The analysis was conducted under oxidative conditions, with a nitrogen flow (as protective gas) of 10 mL/min, an airflow of 25 mL/min, and a temperature range of 25 to 1000 °C. Samples of roughly 5 mg weight were heated at 10°/min. The onset decomposition temperature was calculated using the intersection of TG curve tangents. The temperatures associated with the quickest sample weight loss were calculated using the first derivative of the TG curve (DTG curve). […]

physchem [2] = experiment: physchem
Description: Lipophilicity is essential for predicting the hydrophobicity and partitioning of drugs in biological systems. Therefore, the test was prepared using the shake-flask method.

physchem [3] = experiment: physchem; remark: listed apart in the source
Description: The following oils were used in the research: hemp oil, evening primrose oil, and sunflower oil, as well as the following surfactants: Tween 40, Tween 60, Span 80, and Tween 80. […] The study was carried out in screw-cap vials with continuous magnetic stirring at 100 rpm at 25 °C for 48 h. A supersaturated solution was obtained and filtered through a syringe filter with MCE (Mixed Cellulose Ester) membrane (0.45 µm, ⌀ 47 mm). The content of the compound in the solution was determined by HPLC. The HPLC analyses were performed using a Shimadzu (Kyoto, Japan) Nexera-i LC-2040C 3D High Plus liquid chromatograph equipped with a DAD/FLD detector and Kinetex® F5 column 100 Å ([…]; 150 × 4.6 mm; Phenomenex, Torrance, CA, USA) maintained at 35 °C. The mixture of acetonitrile and water 60/40 (v/v) was used as the mobile phase under isocratic conditions, with a flow rate of 0.5 mL/min. The detection wavelength was 210 nm. The collected data were acquired and processed using LabSolutions/LC Solution System. Each measurement was performed in triplicate, and the results were averaged.

[4] = Permeation of the active substance through the skin, Franz diffusion cell; format: in vitro ADME, pig; conditions: 24 h permeation test; abstract prints human skin
From the text: The steady-state flux was estimated from the slope of the linear portion of the plot of cumulative mass in the acceptor phase over time.

Tonset, the onset temperature of the thermal degradation [1] | T5%, decomposition temperature, 5% weight loss of the initial mass [1] | T50%, decomposition temperature, 50% weight loss of the initial mass [1] | logP (physchem [2]) | solubility at 48 h (physchem [3]; Span 80, 25 °C, aqueous with cosolvent or surfactant or cyclodextrin, thermodynamic from solid) | solubility at 48 h (physchem [3]; Tween 40) | solubility at 48 h (physchem [3]; Tween 60, 25 °C, aqueous with cosolvent or surfactant or cyclodextrin, thermodynamic from solid) | solubility at 48 h (physchem [3]; Tween 80) | solubility at 48 h (physchem [3]; evening primrose oil, 25 °C, oil or lipid, thermodynamic from solid) | solubility at 48 h (physchem [3]; hemp oil) | Solubility (physchem [3]; in Sunflower oil, 25 °C, mean ± S.D., n = 3) | Average cumulative mass of IBU after 24 h from emulsion-based gel, times higher than commercial products [4] | SMILES
265.4 °C | 285.4 °C | 445.1 °C |  |  |  |  |  |  |  |  |  | CC(C)Cc1ccc(C(C)C(=O)[O-])cc1.[Na+] (stereo not drawn) [IBUNa, sodium ibuprofenate]
193.2 °C | 162.1 °C | 210.3 °C | 2.758 ± 0.014 | 56.89 ± 0.15 mg/mL (≈ 276 mM) | 466.1 ± 1.71 mg/mL (≈ 2260 mM) | 519.6 ± 0.69 mg/mL (≈ 2520 mM) | 411 ± 4.18 mg/mL (≈ 1990 mM) | 76.74 ± 0.35 mg/mL (≈ 372 mM) | 95.44 ± 0.03 mg/mL (≈ 463 mM) | 65.10 ± 1.92 mg/mL (≈ 316 mM) | 1.6–4.0 times | CC(C)Cc1ccc(C(C)C(=O)O)cc1 (stereo not drawn) [IBU, ibuprofen]
